In patent publication US20080213363A1, “Methods and compositions for delivering 5-HT3 antagonists across the oral mucosa” (priority 2003, published 2008):
Where two headings read alike, the source gives them in different places.

Format: in vitro ADME
Settings: PAMPA
Source text: Topics Med. Chem. 2001, 1, 277-351.

**Q.** For Cc1nccn1CC1CCc2c(c3ccccc3n2C)C1=O.Cl (stereo not drawn) [Ondansetron HCl, ondansetron HCl], which Papp (pH 5.4) is on record?
**A.** 0.32 ×10⁻⁶ cm/s

**Q.** And the Papp (pH 7.4)?
**A.** 1.3 ×10⁻⁶ cm/s

**Q.** And the Papp (pH 8.5)?
**A.** 3.25 ×10⁻⁶ cm/s
